Source: patent US7741521B2, “Inhibition of bid-induced cell-death using small organic molecules” (The Burnham Institute, priority 2004, dated 2010)

Key:
BID = target: T1, BID (Mus musculus, UniProt P70444); experiment: NMR binding to BID (HSQC/TROSY chemical shifts)
T1 construct: poly-His (N); made in house; host or cells: E. coli BL21
T1 sequence (P70444 1-195): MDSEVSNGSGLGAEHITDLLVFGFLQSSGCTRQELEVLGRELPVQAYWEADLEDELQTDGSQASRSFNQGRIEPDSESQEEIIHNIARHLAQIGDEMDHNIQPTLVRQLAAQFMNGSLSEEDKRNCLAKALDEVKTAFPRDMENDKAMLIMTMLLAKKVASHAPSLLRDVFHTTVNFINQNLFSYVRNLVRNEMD
Procedure: (§1) Recombinant full length mouse BID was produced from a pET-19b (Novagen) plasmid construct containing the entire nucleotide sequence for BID fused to an N-terminal poly-His tag. Unlabeled BID was expressed in E. coli BL21 in LB media at 37° C., with an induction period of 3-4 hours with 1 mM IPTG. ^15N-labeled BID was similarly produced, with growth occurring in M9 media supplemented with 0.5 g/L ^15NH4Cl. ε-^13C-Met labeled BID was produced in M9 media supplemented with 50 mg/L of ε-^13C-Met at time of induction with IPTG. Following cell lysis, soluble BID was purified over a Hi-Trap chelating column (Amersham, Pharmacia), followed by ion-exchange purification with a MonoQ (Amersham, Pharmacia) column. Final BID samples were dialyzed into a buffer appropriate for the subsequent experiments. tBID was produced by cleavage of purified BID with caspase-8, as known in the art.
For all NMR experiments, BID was exchanged into 50 mM phosphate buffer at pH 7.5 and measurements were performed at 30° C. 2D [^15N,^1H]-TROSY spectra for BID were measured with 0.5 mM samples of ^15N-labeled BID. 2D [^13C,^1H]-HSQC spectra were measured with 0.2 mM samples of ε-^13C-Met labeled BID. 2D [^1H,^1H]-NOESY spectra were acquired with small molecules at a concentration of 0.9 mM in the presence of 10 μM BID. T1ρ competition experiments (200 msec spin-lock duration) were performed on either 100 μM BI-2A7 or a mixture of 100 μM BI-2A7 and 10 μM BI-6C9, in the presence and absence of 10 μM BID. All experiments were performed with either a 500 MHz or 600 MHz Bruker Avance spectrometer, both equipped with TXI probes. Typical parameters for the 2D [^15N,^1H]-TROSY spectra included ^1H and ^15N π/2 pulse lengths of 11 μsec and 40 μsec, respectively; ^1H and ^15N sweep widths of 12 ppm and 32 ppm, respectively; 16 scans and 256 indirect acquisition points and a recycle delay of 1 sec. For the 2D [^13C,^1H]-HSQC typical parameters included ^1H and ^13C π/2 pulse lengths of 10 μsec and 13 μsec, respectively; ^1H and ^13C sweep widths of 12 ppm and 5 ppm, respectively; 128 scans and 80 indirect acquisition points and a recycle delay of 1 sec. […]
To examine the binding affinity of some compounds of the invention to BID, 2D [^13C,^1H]-HSQC spectra in presence of ^13C methionine-labeled protein were measured, as at least one methionine is present in the hydrophobic groove of BID (FIG. 4B). […]
Monitoring the variation of cross-peak intensity upon addition of increasing amounts of compound II, allowed to estimate its dissociation constant KD. The arrow on FIG. 5C indicates the peak that was monitored to determine the Kd for compound II. […]

tBID = target: T2, tBID (Mus musculus, UniProt P70444); experiment: NMR chemical shift mapping with tBID (BID cleaved with caspase-8); format: binding; conditions: 15N-BID after cleavage with caspase-8
T2 construct: tBID was produced by cleavage of purified BID with caspase-8, as known in the art; made in house; host or cells: E. coli BL21 (BID), then cleaved in vitro with caspase-8
T2 sequence (P70444 60-195 limits assumed): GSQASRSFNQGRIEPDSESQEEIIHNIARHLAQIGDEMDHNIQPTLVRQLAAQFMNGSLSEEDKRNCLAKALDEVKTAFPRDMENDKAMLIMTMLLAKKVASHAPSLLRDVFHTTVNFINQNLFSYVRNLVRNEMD
T2 sequence (P70444 1-59 partner limits assumed): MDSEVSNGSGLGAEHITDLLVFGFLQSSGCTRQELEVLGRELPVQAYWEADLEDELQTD
Procedure: as §1
For all NMR experiments, BID was exchanged into 50 mM phosphate buffer at pH 7.5 and measurements were performed at 30° C. 2D [^15N,^1H]-TROSY spectra for BID were measured with 0.5 mM samples of ^15N-labeled BID. 2D [^13C,^1H]-HSQC spectra were measured with 0.2 mM samples of ε-^13C-Met labeled BID. 2D [^1H,^1H]-NOESY spectra were acquired with small molecules at a concentration of 0.9 mM in the presence of 10 μM BID. […]

SMILES | Kd (BID; 2D [13C,1H]-HSQC, 13C methionine-labeled BID, cross-peak intensity upon titration, read-out: dissociation constant KD) | binding to tBID compared with full-length BID (tBID) | specific binding to BID, affinity range (BID; 2D [15N-1H]-TROSY chemical shift perturbations) | binding to BID (BID; NMR)
COc1ccc(S(=O)(=O)NCCCC(=O)Nc2ccc(Sc3ccc(N)cc3)cc2)cc1 [Compound II, N-[4-(4-amino-phenylsulfanyl)-phenyl]-4-(4-methoxy-benzenesulfonylamino)-butyramide] | ~20 µM | binding even better | – | –
Nc1ccc(Sc2ccc(NC(=O)CNC(=O)c3ccc(O)cc3O)cc2)cc1 [Compound I, N-((4-(4-aminophenylthio)phenylcarbamoyl)methyl)-2,4-dihydroxybenzamide] | – | higher affinity | low micromolar range | strong binder
